Results taken from patent US6737383B1, “Herbicidal oxadiazolidines” (priority 1999, dated 2004).

Assays:
[1] = test system: bedstraw; experiment: Test B pre/postemergence bedstraw; type: in vivo, Galium aparine; conditions: Preemergence
Outline: (§1)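 Response is a visual 0-to-10 score relative to untreated plants, where 0 means no effect and 10 means complete control, taken twelve to sixteen days after application. Treatments went onto soil at planting and onto foliage of 1- to 4-leaf plants, using a surfactant-containing non-phytotoxic solvent.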

[2] = test system: pigweed; experiment: Test B pre/postemergence pigweed; type: in vivo, Amaranthus retroflexus
Outline: as §1

[3] = test system: corn; experiment: Test B pre/postemergence corn; type: in vivo, Zea mays
Outline: as §1

[4] = test system: sugar beet; experiment: Test B pre/postemergence sugar beet; type: in vivo, Beta vulgaris
Outline: as §1

[5] = test system: cocklebur; experiment: Test B pre/postemergence cocklebur; type: in vivo, Xanthium strumarium
Outline: as §1

[6] = test system: giant foxtail; experiment: Test B pre/postemergence giant foxtail; type: in vivo, Setaria faberii
Outline: as §1

[7] = test system: wheat; experiment: Test B pre/postemergence wheat; type: in vivo, Triticum aestivum
Outline: as §1

[8] = test system: blackgrass; experiment: Test B pre/postemergence blackgrass; type: in vivo, Alopecurus myosuroides
Outline: as §1

[9] = test system: surinam grass; experiment: Test B pre/postemergence surinam grass; type: in vivo, Brachiaria decumbens
Outline: as §1

[10] = test system: soybean; experiment: Test B pre/postemergence soybean; type: in vivo, Glycine max
Outline: as §1

[11] = test system: crabgrass; experiment: Test B pre/postemergence crabgrass; type: in vivo, Digitaria sanguinalis
Outline: as §1

[12] = test system: velvetleaf; experiment: Test B pre/postemergence velvetleaf; type: in vivo, Abutilon theophrasti
Outline: as §1

[13] = test system: rape; experiment: Test B pre/postemergence rape; type: in vivo, Brassica napus
Outline: as §1

[14] = test system: purple nutsedge; experiment: Test B pre/postemergence purple nutsedge; type: in vivo, Cyperus rotundus
Outline: as §1

[15] = test system: wild oat; experiment: Test B pre/postemergence wild oat; type: in vivo, Avena fatua
Outline: as §1

[16] = test system: morningglory; experiment: Test B pre/postemergence morningglory; type: in vivo, Ipomoea hederacea
Outline: as §1

[17] = Postemergence, Rate 125 g/ha, scale of 0 to 10 where 0 is no effect and 10 is complete control
[18] = Postemergence, Rate 1000 g/ha, scale 0 to 10 (0 no effect, 10 complete control)
[19] = Preemergence, Rate 125 g/ha, scale of 0 to 10 where 0 is no effect and 10 is complete control
[20] = Preemergence, Rate 250 g/ha, scale 0 (no effect) to 10 (complete control)
[21] = Rate 500 g/ha, Postemergence, scale 0 to 10, 0 is no effect, 10 is complete control
[22] = Rate 500 g/ha, Preemergence, scale 0 to 10 (0 no effect, 10 complete control)
[23] = Rate 1000 g/ha, Preemergence, scale 0 to 10 (0 no effect, 10 complete control)
[24] = Rate 250 g/ha, Postemergence, scale 0 to 10, 0 is no effect, 10 is complete control

CCOP(=O)(Cn1c(=O)on(C(=O)N(c2ccc(F)cc2F)C(C)C)c1=O)OCC [Compound 736]
Plant response rating, Bedstraw ([1]; Rate 125 g/ha, scale of 0 to 10 where 0 is no effect and 10 is complete control): 0 | Bedstraw plant response rating ([1]; Rate 250 g/ha, scale 0 (no effect) to 10 (complete control)): 0 | Bedstraw plant response rating ([1]; Rate 500 g/ha, scale 0 to 10 (0 no effect, 10 complete control)): 8 | Redroot pigweed plant response rating [2, 17]: 2 | Redroot pigweed plant response rating [2, 18]: 3 | Plant response rating, Redroot pigweed [2, 19]: 0 | Redroot pigweed plant response rating [2, 20]: 2 | Redroot pigweed plant response rating [2, 21]: 0 | Redroot pigweed plant response rating [2, 22]: 2 | Plant response rating, Redroot pigweed [2, 23]: 2 | Corn plant response rating [3, 17]: 4 | Corn plant response rating [3, 18]: 4 | Plant response rating, Corn [3, 19]: 2 | Corn plant response rating [3, 20]: 2 | Corn plant response rating [3, 24]: 3 | Corn plant response rating [3, 21]: 4 | Corn plant response rating [3, 22]: 2 | Plant response rating, Corn [3, 23]: 9 | Sugarbeets plant response rating [4, 17]: 0 | Plant response rating, Sugarbeets [4, 19]: 0 | Sugarbeets plant response rating [4, 20]: 0 | Sugarbeets plant response rating [4, 24]: 0 | Sugarbeets plant response rating [4, 21]: 0 | Sugarbeets plant response rating [4, 22]: 3 | Plant response rating, Sugarbeets [4, 23]: 5 | Cocklebur plant response rating [5, 17]: 0 | Cocklebur plant response rating [5, 18]: 10 | Plant response rating, Cocklebur [5, 19]: 0 | Cocklebur plant response rating [5, 20]: 2 | Cocklebur plant response rating [5, 24]: 0 | Cocklebur plant response rating [5, 21]: 3 | Cocklebur plant response rating [5, 22]: 2 | Plant response rating, Cocklebur [5, 23]: 2 | Giant foxtail plant response rating [6, 17]: 2 | Giant foxtail plant response rating [6, 18]: 6 | Plant response rating, Giant foxtail [6, 19]: 8 | Giant foxtail plant response rating [6, 20]: 9 | Giant foxtail plant response rating [6, 24]: 2 | Giant foxtail plant response rating [6, 21]: 7 | Giant foxtail plant response rating [6, 22]: 9 | Plant response rating, Giant foxtail [6, 23]: 8 | Wheat plant response rating [7, 17]: 2 | Plant response rating, Wheat [7, 19]: 3 | Wheat plant response rating [7, 20]: 3 | Wheat plant response rating [7, 24]: 2 | Wheat plant response rating [7, 21]: 2 | Wheat plant response rating [7, 22]: 8 | Plant response rating, Wheat [7, 23]: 9 | Blackgrass plant response rating [8, 17]: 0 | Blackgrass plant response rating [8, 18]: 7 | Plant response rating, Blackgrass [8, 19]: 2 | Blackgrass plant response rating [8, 20]: 4 | Blackgrass plant response rating [8, 24]: 2 | Blackgrass plant response rating [8, 21]: 3 | Blackgrass plant response rating [8, 22]: 9 | Plant response rating, Blackgrass [8, 23]: 10 | B. signalgrass plant response rating [9, 17]: 0 | B. signalgrass plant response rating [9, 18]: 7 | Plant response rating, B. signalgrass [9, 19]: 3 | B. signalgrass plant response rating [9, 20]: 3 | B. signalgrass plant response rating [9, 24]: 0 | B. signalgrass plant response rating [9, 21]: 0 | B. signalgrass plant response rating [9, 22]: 8 | Plant response rating, B. signalgrass [9, 23]: 9 | Soybean plant response rating [10, 17]: 3 | Plant response rating, Soybean [10, 19]: 0 | Soybean plant response rating [10, 20]: 2 | Soybean plant response rating [10, 24]: 4 | Soybean plant response rating [10, 21]: 3 | Soybean plant response rating [10, 22]: 2 | Plant response rating, Soybean [10, 23]: 3 | Crabgrass plant response rating [11, 17]: 3 | Crabgrass plant response rating [11, 18]: 6 | Plant response rating, Crabgrass [11, 19]: 3 | Crabgrass plant response rating [11, 20]: 4 | Crabgrass plant response rating [11, 24]: 3 | Crabgrass plant response rating [11, 21]: 4 | Crabgrass plant response rating [11, 22]: 9 | Plant response rating, Crabgrass [11, 23]: 9 | Velvetleaf plant response rating [12, 17]: 2 | Plant response rating, Velvetleaf [12, 19]: 0 | Velvetleaf plant response rating [12, 20]: 0 | Velvetleaf plant response rating [12, 24]: 2 | Velvetleaf plant response rating [12, 21]: 3 | Velvetleaf plant response rating [12, 22]: 4 | Plant response rating, Velvetleaf [12, 23]: 3 | Rape plant response rating [13, 17]: 0 | Rape plant response rating [13, 18]: 0 | Plant response rating, Rape [13, 19]: 0 | Rape plant response rating [13, 20]: 0 | Rape plant response rating [13, 24]: 0 | Rape plant response rating [13, 21]: 0 | Rape plant response rating [13, 22]: 2 | Plant response rating, Rape [13, 23]: 2 | Nutsedge plant response rating [14, 17]: 0 | Nutsedge plant response rating [14, 18]: 5 | Plant response rating, Nutsedge [14, 19]: 0 | Nutsedge plant response rating [14, 20]: 0 | Nutsedge plant response rating [14, 24]: 0 | Nutsedge plant response rating [14, 21]: 2 | Nutsedge plant response rating [14, 22]: 10 | Plant response rating, Nutsedge [14, 23]: 8 | Wild oats plant response rating [15, 17]: 2 | Plant response rating, Wild oats [15, 19]: 2 | Wild oats plant response rating [15, 20]: 9 | Wild oats plant response rating [15, 24]: 3 | Wild oats plant response rating [15, 21]: 3 | Wild oats plant response rating [15, 22]: 9 | Plant response rating, Wild oats [15, 23]: 10 | Morningglory plant response rating [16, 17]: 6 | Morningglory plant response rating [16, 18]: 7 | Plant response rating, Morningglory [16, 19]: 0 | Morningglory plant response rating [16, 20]: 2 | Morningglory plant response rating [16, 24]: 6 | Morningglory plant response rating [16, 21]: 5 | Morningglory plant response rating [16, 22]: 6 | Plant response rating, Morningglory [16, 23]: 6
